Laboratory results reported in article PMC12189828, “Substitution of Proline Residues by 4-Fluoro-L-Proline Affects the Mechanism of the Proline-Rich Antimicrobial Peptide Api137” (Antibiotics, 2025).
Values after ≈ are worked out from the molar mass of the structure shown. Values joined by “and” are separate entries in the source; they are usually repeats but may differ in a detail not shown here. Identical values can stand only once. Where a SMILES comes first, the peptide text is derived from it. The star is where a group is joined. Orn(α-tetramethylguanidino) = CN(C)C(=N[C@@H](CCCN)C(=O)*)N(C)C

How the values were obtained:
E. coli RN31 = experiment: Minimum inhibitory concentration (MIC) against E. coli RN31; format: cell-based, Escherichia coli; details: E. coli RN31, 33% TSB, 37 °C overnight (~16 h), 7.5 × 10^6 bacteria/mL; two independent experiments with two replicates each (n = 4)
Procedure: Minimum inhibitory concentrations were determined for E. coli RN31 grown in 33% TSB (37 °C, 200 rpm) with a starting OD600 of 0.05. After four hours, the cell count was adjusted to 1.5 × 10^7 bacteria/mL. In a transparent 96-well plate, the peptides were diluted in a two-fold dilution series in 33% TSB over 10 dilution steps, and E. coli was added to obtain a final cell count of 7.5 × 10^6 bacteria/mL and incubated at 37 °C overnight. OD600 was determined using a PARADIGM^TM microplate reader (Beckman Coulter, Salzburg, Austria) before and after cultivation. The MIC was defined as the lowest peptide concentration preventing visible bacterial growth.

[1] = tested on: in vitro expression of sfGFP in the presence of RF1; experiment: In vitro transcription-translation (iTT) assay of sfGFP in the presence of RF1; format: biochemical; details: peptide 5 µmol/L, RF1, 37 °C, 2 h, fluorescence; normalized to absence of PrAMPs; n = 3
How it was run: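 Cell-free PURExpress ΔRF123 system was supplemented with 50-fold-diluted RF1 and a sfGFP template ending in a UAG stop codon (35 ng, 0.1325 pmol). PrAMP was added from a 50 or 0 µmol/L aqueous solution. Reactions ran at 37 °C for 2 h, with fluorescence (ex 485/em 535 nm) read every 10 min.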

## CC[C@H](C)[C@H](NC(=O)[C@H](Cc1ccc(O)cc1)NC(=O)[C@@H](NC(=O)[C@@H]1CCCN1C(=O)[C@H](CCCNC(=N)N)NC(=O)[C@H](CC(N)=O)NC(=O)[C@H](CC(N)=O)NC(=O)[C@H](CCCN)N=C(N(C)C)N(C)C)C(C)C)C(=O)N1CCC[C@H]1C(=O)N[C@@H](CCCNC(=N)N)C(=O)N1CCC[C@H]1C(=O)N[C@@H](CCCNC(=N)N)C(=O)N1CCC[C@H]1C(=O)N1CCC[C@H]1C(=O)N[C@@H](Cc1c[nH]cn1)C(=O)N1CCC[C@H]1C(=O)N[C@@H](CCCNC(=N)N)C(=O)N[C@@H](CC(C)C)C(=O)O [Api137] ({Orn(α-tetramethylguanidino)}-NNRPVYIPRPRPPHPRL-OH; N-terminus and C-terminus assumed)
E. coli RN31
  MIC: 4 µg/mL (≈ 1.75 µM)
[1]
  Residual iTT (sfGFP expression relative to no PrAMP): 22% and 22 ± 6.2%
